#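 1) Cells in 96-well plates. 2) Compound, 48 h, 5 concentrations. 3) Linear interpolation between surrounding doses. 4) Unreached endpoint = highest concentration. At the GI50, growth is halved.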 Calls of active or inactive are those of the source. No stated cut-off is given here; in the data, active = GI50 up to about 1.1 µM and inactive = higher.
# Legend:
# Experiment in all cases: inhibition of tumour cell growth, NCI panel, 48 h
# [1] = test system: LOX IMVI
# [2] = test system: BT-549
# [3] = test system: OVCAR-8
# [4] = test system: SK-MEL-28
# [5] = test system: ACHN
# [6] = test system: MDA-N
# [7] = test system: MCF7
# [8] = test system: CAKI-1
# [9] = test system: 786-0
# [10] = test system: SNB-75
# [11] = test system: NCI-H522
# [12] = test system: U-251
# [13] = test system: HCT-15
# [14] = test system: OVCAR-4
# [15] = test system: OVCAR-3
# [16] = test system: T47D
# [17] = test system: SN12C
# [18] = test system: RPMI-8226
# [19] = test system: NCI/ADR-RES
# [20] = test system: SF-295
Compound,GI50 [1],GI50 [2],GI50 [3],GI50 [4],GI50 [5],GI50 [6],GI50 [7],GI50 [8],GI50 [9],GI50 [10],GI50 [11],GI50 [12],GI50 [13],GI50 [14],GI50 [15],GI50 [16],GI50 [17],GI50 [18],GI50 [19],GI50 [20]
COc1cccc2c1cc([N+](=O)[O-])c1c(C(=O)O)cc3c(c12)OCO3 [ARISTOLOCHIC ACID],35.5 µM (inactive),39.4 µM (inactive),28.7 µM (inactive),41.9 µM (inactive),41.6 µM (inactive),> 100 µM (inactive),49.4 µM (inactive),27.2 µM (inactive),37.2 µM (inactive),30.9 µM (inactive),28.1 µM (inactive),36.9 µM (inactive),18.2 µM,32 µM (inactive),33.9 µM (inactive),50.1 µM (inactive),> 74.3 µM (inactive),24.7 µM (inactive),38.1 µM (inactive),32.4 µM (inactive)
Clc1ccc(COC(Cn2ccnc2)c2ccc(Cl)cc2Cl)cc1 (stereo not given) [ECONAZOLE],6.98 µM (inactive),18.9 µM (inactive),11.4 µM (inactive),17.2 µM (inactive),15.5 µM (inactive),14.1 µM (inactive),12.4 µM (inactive),11.6 µM (inactive),13.1 µM (inactive),13.7 µM (inactive),4.57 µM (inactive),13.2 µM (inactive),12.7 µM,11.8 µM (inactive),10.9 µM (inactive),6.9 µM (inactive),12.5 µM (inactive),8.26 µM (inactive),4.44 µM (inactive),10.8 µM (inactive)
O=c1ccc2ccc(O)cc2o1 [UMBELLIFERONE],> 100 µM (inactive),> 100 µM (inactive),> 100 µM (inactive),> 100 µM (inactive),> 100 µM (inactive),> 100 µM (inactive),> 100 µM (inactive),> 100 µM (inactive),> 100 µM (inactive),> 100 µM (inactive),> 100 µM (inactive),> 100 µM (inactive),> 100 µM,> 100 µM (inactive),> 100 µM (inactive),> 100 µM (inactive),> 100 µM (inactive),> 100 µM (inactive),> 100 µM (inactive),> 100 µM (inactive)

# — ChEMBL document CHEMBL1201862, “PubChem BioAssay data set” (2004)
